Source: ChEMBL document CHEMBL5441456, “ASAP - SARS-CoV-2 nsp3 macrodomain dose response” (2024)
pIC50: −log10 of the molar value. Values joined by “and” are separate entries in the source; they are usually repeats but may differ in a detail not shown here. Identical values can stand only once.

What follows are compounds tested against Replicase polyprotein 1ab (Severe acute respiratory syndrome coronavirus 2, UniProt P0DTD1) (assay: Functional biochemical assay to identify treatments for viral infectious disease that targets SARS-COV-2 nsp3 macrodomain, whereby the mechanism of action displaces an ADP-Ribose modified peptide from the binding site. Utilizing a time-resolved fluorescence method to measure binding by reading the emitted fluorescence intensity in two wavelengths.).

| SMILES | pIC50 |
| --- | --- |
| CC(C)[C@@H](Nc1ncnc2[nH]cc(C(=O)NC3CC3)c12)c1ccc2c(c1)S(=O)(=O)CCC2 | 6.59 and 6.84 and 6.82 |
| CC(C)[C@@H](Nc1ncnc2[nH]c(-c3cnn(CC(N)=O)c3)cc12)c1ccc2c(n1)OCCO2 | 6.62 and 7.17 and 6.87 |
| CCn1ncc(-c2cc3c(N[C@@H](c4ccc5c(c4)OCCO5)C(C)C)ncnc3[nH]2)c1C | 6.04 and 5.97 |
| CC(C)[C@@H](Nc1ncnc2[nH]c(-c3ccoc3C#N)cc12)c1ccc2c(c1)OCCO2 | 5.57 |
| CC(C)[C@@H](Nc1ncnc2[nH]c(-c3cc(-c4ccccc4)n[nH]3)cc12)c1ccc2c(c1)OCCO2 | < 4.00 |
| Cc1nnc(CNC(=O)c2cc3c(N[C@@H](c4ccc5c(c4)OCCO5)C(C)C)ncnc3[nH]2)o1 | 5.95 |
| CC(C)[C@@H](Nc1ncnc2[nH]c(-c3cccc(NC(N)=O)c3)cc12)c1ccc2c(c1)OCCO2 | 5.29 and 5.23 |
| CCn1ncc(-c2cc3c(N[C@@H](c4ccc5c(c4)OCCO5)C(C)C)ncnc3[nH]2)n1 | 5.97 and 5.91 |
| CC(C)[C@@H](Nc1ncnc2[nH]c(-c3cnn(C4(C(N)=O)CC4)c3)cc12)c1ccc2c(c1)OCCO2 | 5.98 and 5.86 and 5.88 |
| CC(C)[C@@H](Nc1ncnc2[nH]c(-c3ccnn3C3CCC3)cc12)c1ccc2c(c1)OCCO2 | 5.25 and 5.06 |
| CC(C)[C@@H](Nc1ncnc2[nH]c([C@@H]3CCCNC3)cc12)c1ccc2c(c1)OCCO2 | 5.46 and 5.26 and 5.28 |
| CC(C)[C@@H](Nc1ncnc2[nH]ccc12)c1ccc2c(c1)N(C)C(=O)CO2 | 4.17 |
| CC(C)[C@@H](Nc1ncnc2[nH]ccc12)c1ccc2cn[nH]c2c1 | < 4.00 |
| Cc1cc(CNC(=O)c2cc3c(N[C@@H](c4ccc5c(c4)OCCO5)C(C)C)ncnc3[nH]2)[nH]n1 | 5.92 |
| CNCc1cc(-c2cc3c(N[C@@H](c4ccc5c(c4)OCCO5)C(C)C)ncnc3[nH]2)co1 | 6.55 and 6.42 |
| CC(C)[C@@H](Nc1ncnc2[nH]c(-c3ccnn3C)cc12)c1ccc2c(c1)OCCO2 | 6.16 and 6.05 and 6.08 |
| CCc1n[nH]cc1-c1cc2c(N[C@@H](c3ccc4c(c3)OCCO4)C(C)C)ncnc2[nH]1 | 5.93 and 6.02 |
| CC(C)[C@@H](Nc1ncnc2[nH]c(-c3cc[nH]c3)cc12)c1ccc2c(c1)OCCO2 | 5.27 and 5.34 |
| CC(C)[C@@H](Nc1ncnc2[nH]c(-c3cnn(-c4ccc(F)cc4)c3)cc12)c1ccc2c(c1)OCCO2 | 4.56 and 4.59 |
| COC(=O)c1coc(-c2cc3c(N[C@@H](c4ccc5c(c4)OCCO5)C(C)C)ncnc3[nH]2)c1 | 5.03 and 4.97 and 4.99 |
| CC(C)[C@@H](Nc1ncnc2[nH]c(-c3cnn(C)c3)cc12)c1ccc2c(c1)OCCO2 | 6.27 and 6.21 |
| Cc1noc2ncc(-c3cc4c(N[C@@H](c5ccc6c(c5)OCCO6)C(C)C)ncnc4[nH]3)cc12 | 5.43 and 5.52 |

| SMILES | pIC50 |
| --- | --- |
| CCn1ccc(-c2cc3c(N[C@@H](c4ccc5c(c4)OCCO5)C(C)C)ncnc3[nH]2)n1 | 5.88 and 5.82 |
| CC(C)[C@@H](Nc1ncnc2[nH]c(-c3cnn(C4CC4)c3)cc12)c1ccc2c(c1)OCCO2 | 6.00 and 5.91 and 5.95 |
| Cc1n[nH]c(-c2cc3c(N[C@@H](c4ccc5c(c4)OCCO5)C(C)C)ncnc3[nH]2)c1C | 5.29 and 5.35 |
| CC(C)[C@@H](Nc1ncnc2[nH]c(C(=O)NCCn3cncn3)cc12)c1ccc2c(c1)OCCO2 | 5.75 |
| Cc1nnn(C)c1-c1cc2c(N[C@@H](c3ccc4c(c3)OCCO4)C(C)C)ncnc2[nH]1 | 4.99 and 5.06 |
| CC(C)[C@@H](Nc1ncnc2[nH]c(-c3cccc(CN4CCCS4(=O)=O)c3)cc12)c1ccc2c(c1)OCCO2 | < 4.00 |
| Cc1occc1-c1cc2c(N[C@@H](c3ccc4c(c3)OCCO4)C(C)C)ncnc2[nH]1 | 5.07 and 5.05 and 5.02 |
| Cc1cc(-c2cc3c(N[C@@H](c4ccc5c(c4)OCCO5)C(C)C)ncnc3[nH]2)nn1C | 5.55 and 5.79 |
| CNC(=O)c1c[nH]c2ncnc(N[C@@H](c3ccc4c(c3)NC(=O)CO4)C(C)C)c12 | 6.51 |
| CC(C)[C@@H](Nc1ncnc2[nH]c(-c3cnc(C4CC4)o3)cc12)c1ccc2c(c1)OCCO2 | 5.48 and 5.43 |
| CC(C)[C@@H](Nc1ncnc2[nH]c(-c3ccco3)cc12)c1ccc2c(c1)OCCO2 | 5.21 |
| CCCn1nccc1-c1cc2c(N[C@@H](c3ccc4c(c3)OCCO4)C(C)C)ncnc2[nH]1 | 5.66 and 5.61 and 5.58 |
| Cc1ccoc1-c1cc2c(N[C@@H](c3ccc4c(c3)OCCO4)C(C)C)ncnc2[nH]1 | 4.36 and 4.40 |
| CC(C)[C@@H](Nc1ncnc2[nH]c(-c3cncc(C(=O)N(C)C)c3)cc12)c1ccc2c(c1)OCCO2 | 6.13 and 6.09 |
| CC(C)[C@@H](Nc1ncnc2[nH]c(-c3cccc(CN4CCS(=O)(=O)CC4)c3)cc12)c1ccc2c(c1)OCCO2 | 5.49 and 5.46 and 5.45 |
| CC(=O)c1ccc(-c2cc3c(N[C@@H](c4ccc5c(c4)OCCO5)C(C)C)ncnc3[nH]2)[nH]1 | 5.53 and 5.49 |
| CC(C)[C@@H](Nc1ncnc2[nH]ccc12)c1ccc2c(c1)NC(=O)[C@@H](C)O2 | 5.57 and 5.54 |
| CCn1nccc1-c1cc2c(N[C@@H](c3ccc4c(c3)OCCO4)C(C)C)ncnc2[nH]1 | 6.05 and 5.85 and 5.89 |
| CC(C)[C@@H](Nc1ncnc2[nH]c(-c3cccc(Cn4ccnc4)c3)cc12)c1ccc2c(c1)OCCO2 | < 4.00 |
| CC(C)[C@@H](Nc1ncnc2[nH]c(-c3cnn([C@@H](C)C(N)=O)c3)cc12)c1ccc2c(c1)OCCO2 | 6.37 and 6.30 |
| CC(C)[C@@H](Nc1ncnc2[nH]c(-c3ccn(C(C)C)n3)cc12)c1ccc2c(c1)OCCO2 | 5.64 and 5.58 |
| Cc1c(-c2cc3c(N[C@@H](c4ccc5c(c4)OCCO5)C(C)C)ncnc3[nH]2)cnn1C | 6.19 and 6.15 |

| SMILES | pIC50 |
| --- | --- |
| CC(C)[C@@H](Nc1ncnc2[nH]c(-c3ccc(C#N)nc3)cc12)c1ccc2c(c1)OCCO2 | 5.73 and 5.67 |
| CC(C)[C@@H](Nc1ncnc2[nH]c(-c3cn(C)nc3C3CC3)cc12)c1ccc2c(c1)OCCO2 | 5.92 and 5.93 |
| COCCNC(=O)c1c[nH]c2ncnc(N[C@@H](c3ccc4c(c3)S(=O)(=O)CCC4)C(C)C)c12 | 6.49 |
| CC(C)[C@@H](Nc1ncnc2[nH]c(-c3ccnc(N4CCCC4)c3)cc12)c1ccc2c(c1)OCCO2 | 4.78 and 4.76 |
| CC(C)[C@@H](Nc1ncnc2[nH]c(-c3cnc4c(c3)CC(=O)N4)cc12)c1ccc2c(c1)OCCO2 | 5.89 and 5.82 |
| Cc1n[nH]c(C)c1-c1cc2c(N[C@@H](c3ccc4c(c3)OCCO4)C(C)C)ncnc2[nH]1 | 4.50 |
| CC(C)[C@@H](Nc1cc(C(N)=O)ccn1)c1ccc2c(c1)S(=O)(=O)CCC2 | < 4.00 |
| CC(C)c1n[nH]cc1-c1cc2c(N[C@@H](c3ccc4c(c3)OCCO4)C(C)C)ncnc2[nH]1 | 5.70 and 5.69 |
| CC(C)[C@@H](Nc1ncnc2[nH]ccc12)c1ccc2nn[nH]c2c1 | 5.46 and 5.39 |
| CC(C)[C@@H](Nc1ncnc2[nH]c(-c3cn[nH]c3)cc12)c1ccc2c(c1)OCCO2 | 6.15 and 6.13 |
| COC(=O)c1cc(-c2cc3c(N[C@@H](c4ccc5c(c4)OCCO5)C(C)C)ncnc3[nH]2)c[nH]1 | 5.30 |
| CC(C)[C@@H](Nc1ncnc2[nH]c(-c3cc4c(C#N)cccc4[nH]3)cc12)c1ccc2c(c1)OCCO2 | < 4.00 |
| CNC(=O)c1cc2c(N[C@@H](c3ccc4c(c3)NC(=O)CO4)C(C)C)ncnc2[nH]1 | 6.79 and 6.84 and 6.81 |
| Cc1ncc(-c2cc3c(N[C@@H](c4ccc5c(c4)OCCO5)C(C)C)ncnc3[nH]2)n1C | 6.17 and 6.15 |
| CC(C)[C@@H](Nc1ncnc2[nH]ccc12)c1ccc2c(n1)NC(=O)CO2 | 5.58 and 5.57 |
| CC(C)[C@@H](Nc1ncnc2[nH]c(-c3cn(C)nc3C#N)cc12)c1ccc2c(c1)OCCO2 | 6.06 and 6.07 |
| Cc1cocc1-c1cc2c(N[C@@H](c3ccc4c(c3)OCCO4)C(C)C)ncnc2[nH]1 | 5.60 and 5.59 |
| Cc1ncc(-c2cc3c(N[C@@H](c4ccc5c(c4)OCCO5)C(C)C)ncnc3[nH]2)o1 | 5.94 and 5.87 and 5.85 |
| CC(C)[C@@H](Nc1ncnc2[nH]c(-c3cnn(C4CCC4)c3)cc12)c1ccc2c(c1)OCCO2 | 5.93 and 5.82 and 5.85 |
| Cc1ccc(-c2cc3c(N[C@@H](c4ccc5c(c4)OCCO5)C(C)C)ncnc3[nH]2)o1 | 4.39 and 4.43 |
| CC(C)[C@@H](Nc1ncnc2[nH]c(-c3cnn(C4CCC4)n3)cc12)c1ccc2c(c1)OCCO2 | 5.42 and 5.41 |
| Cc1cn[nH]c1-c1cc2c(N[C@@H](c3ccc4c(c3)OCCO4)C(C)C)ncnc2[nH]1 | 5.17 and 5.05 and 5.06 |

| SMILES | pIC50 |
| --- | --- |
| CC(C)[C@@H](Nc1ncnc2[nH]c(C3=CCCN(C(=O)OCc4ccccc4)C3)cc12)c1ccc2c(c1)OCCO2 | < 4.00 |
| CC(C)[C@@H](Nc1ncnc2[nH]c(-c3ccc(S(N)(=O)=O)cc3)cc12)c1ccc2c(c1)OCCO2 | 5.79 and 5.74 |
| CNc1cc(N[C@@H](c2ccc3c(c2)S(=O)(=O)CCC3)C(C)C)ncn1 | 5.22 |
| COCCn1cc(-c2cc3c(N[C@@H](c4ccc5c(c4)OCCO5)C(C)C)ncnc3[nH]2)c(C#N)n1 | 6.17 and 6.06 |
| CNC(=O)c1cccc(-c2cc3c(N[C@@H](c4ccc5c(c4)OCCO5)C(C)C)ncnc3[nH]2)c1 | 6.38 and 6.32 and 6.42 |
| CC(C)[C@@H](Nc1ncnc2[nH]c(-c3ccc(CC#N)cc3)cc12)c1ccc2c(c1)OCCO2 | 4.58 and 4.54 |
| CC(C)[C@@H](Nc1ncnc2[nH]c(-c3cnn(C(C)C)c3)cc12)c1ccc2c(c1)OCCO2 | 6.12 and 6.02 and 6.06 |
| Cc1cn(C)nc1-c1cc2c(N[C@@H](c3ccc4c(c3)OCCO4)C(C)C)ncnc2[nH]1 | < 4.00 |
| Cc1cc(-c2cc3c(N[C@@H](c4ccc5c(c4)OCCO5)C(C)C)ncnc3[nH]2)co1 | 5.06 and 4.87 and 4.77 |
| CC(C)[C@@H](Nc1ncnc2[nH]c(-c3ccc4nccn4c3)cc12)c1ccc2c(c1)OCCO2 | 5.94 and 5.86 |
| CC(C)[C@@H](Nc1ncnc2[nH]c(-c3cnn(CC(N)=O)c3)cc12)c1ccc2c(n1)NC(=O)CO2 | 6.60 and 6.52 and 6.45 |
| CC(C)[C@@H](Nc1ncnc2[nH]c(-c3ccc4[nH]ncc4c3)cc12)c1ccc2c(c1)OCCO2 | 4.69 and 4.71 |
| COc1nn(C)cc1-c1cc2c(N[C@@H](c3ccc4c(c3)OCCO4)C(C)C)ncnc2[nH]1 | 5.75 and 5.72 |
| Cc1nn(C)cc1-c1cc2c(N[C@@H](c3ccc4c(c3)OCCO4)C(C)C)ncnc2[nH]1 | 6.39 and 6.31 and 6.33 |
| Cc1cc(-c2cc3c(N[C@@H](c4ccc5c(c4)OCCO5)C(C)C)ncnc3[nH]2)c[nH]1 | 5.02 and 4.99 |
| CC(C)[C@@H](Nc1ncnc2[nH]c(C(=O)Nc3cn[nH]c3)cc12)c1ccc2c(c1)OCCO2 | 5.59 |
| CC(C)[C@@H](Nc1ncnc2[nH]c(-c3cnn(CC4(C#N)CC4)c3)cc12)c1ccc2c(c1)OCCO2 | 6.38 and 6.35 |
| CC(C)[C@@H](Nc1ncnc2[nH]c(-c3ccnn3C(C)C)cc12)c1ccc2c(c1)OCCO2 | 5.52 and 5.53 |
| Cc1nn(CC(N)=O)cc1-c1cc2c(N[C@@H](c3ccc4c(c3)OCCO4)C(C)C)ncnc2[nH]1 | 6.48 and 6.47 |
| CC(C)[C@@H](Nc1ncnc2[nH]c(-c3cnn(C(C)C)n3)cc12)c1ccc2c(c1)OCCO2 | 5.77 and 5.67 |
